Reference: patent publication US20100267561A1, “HERBICIDAL PYRIDAZINONE DERIVATIVES” (priority 2007, published 2010)

Tests used:
Assay type in all cases: in vivo
[1] = test system: canarygrass (Phalaris minor); experiment: Test B postemergence plant response; settings: for Plant response rating, Canarygrass: Postemergence
Outline: (§1)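 Visual injury score from 0 (none) to 100 (complete control) versus controls, taken 13 to 15 days after treatment in the greenhouse; chemicals applied postemergence, as formulated, to plants of 1- to 4-leaf stage (2 to 18 cm tall); dash denotes no test result.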

[2] = test system: chickweed (Stellaria media); experiment: Test B postemergence plant response; settings: for Plant response rating, Chickweed: Postemergence
Outline: as §1

[3] = test system: spring barley (Hordeum vulgare); experiment: Test C pre-/postemergence plant response
Outline: (§2)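 Pre/post spray; solvent blend non-phytotoxic, with surfactant; post stage 1–4 leaves (2–18 cm); controlled environment 15–25 d; visual score 0–100 relative to controls, 100 = complete control.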

[4] = test system: winter barley (Hordeum vulgare); experiment: Test C pre-/postemergence plant response
Outline: as §2

[5] = test system: canarygrass (Phalaris minor); experiment: Test C pre-/postemergence plant response
Outline: as §2

[6] = test system: windgrass (Apera spica-venti); experiment: Test C pre-/postemergence plant response
Outline: as §2

[7] = test system: annual bluegrass (Poa annua); experiment: Test C pre-/postemergence plant response
Outline: as §2

[8] = test system: downy bromegrass (Bromus tectorum); experiment: Test C pre-/postemergence plant response
Outline: as §2

wild oat (Avena fatua) = experiment: Test C pre-/postemergence plant response
Outline: as §2

[9] = test system: spring wheat (Triticum aestivum); experiment: Test C pre-/postemergence plant response
Outline: as §2

[10] = test system: Italian ryegrass (Lolium multiflorum); experiment: Test C pre-/postemergence plant response
Outline: as §2

[11] = test system: pigweed (Amaranthus retroflexus); experiment: Test C pre-/postemergence plant response
Outline: as §2

[12] = test system: blackgrass (Alopecurus myosuroides); experiment: Test C pre-/postemergence plant response
Outline: as §2

[13] = test system: winter wheat (Triticum aestivum); experiment: Test C pre-/postemergence plant response
Outline: as §2

[14] = test system: wild mustard (Sinapis arvensis); experiment: Test C pre-/postemergence plant response
Outline: as §2

[15] = test system: green foxtail (Setaria viridis); experiment: Test C pre-/postemergence plant response
Outline: as §2

[16] = 8 g ai/ha, postemergence, 0-100 scale
[17] = 31 g ai/ha, scale 0 to 100, 0 no effect, 100 complete control
[18] = Postemergence, 8 g ai/ha, scale 0 to 100, 0 no effect, 100 complete control
[19] = Postemergence, 16 g ai/ha, scale 0 to 100, 0 no effect, 100 complete control
[20] = Postemergence, 31 g ai/ha, scale 0 to 100, 0 no effect, 100 complete control
[21] = Preemergence, 8 g ai/ha, scale 0 to 100 (0 no effect, 100 complete control)
[22] = Preemergence, 16 g ai/ha, scale 0 to 100 (0 no effect, 100 complete control)
[23] = Preemergence, 31 g ai/ha, scale 0 to 100 (0 no effect, 100 complete control)
[24] = Preemergence, 62 g ai/ha, scale 0 to 100, 0 no effect, 100 complete control
[25] = Postemergence, 62 g ai/ha, scale 0 to 100, 0 no effect, 100 complete control

SMILES: CCc1cc(-c2ccc(F)cc2)nn1-c1c(O)cnn(C)c1=O [Compound 25]
- Canarygrass plant response rating [1, 16]: 0
- Plant response rating, Canarygrass ([1]; 16 g ai/ha, scale 0 to 100): 0
- Plant response rating, Canarygrass [1, 17]: 0
- Plant response rating, Canarygrass ([1]; 62 g ai/ha, scale 0 to 100): 10
- Chickweed plant response rating [2, 16]: 0
- Plant response rating, Chickweed ([2]; 16 g ai/ha, scale 0 to 100): 0
- Plant response rating, Chickweed [2, 17]: 0
- Plant response rating, Chickweed ([2]; 62 g ai/ha, scale 0 to 100): 0
- Plant response rating, Barley, Spring [3, 18]: 0
- Plant response rating, Barley, Spring [3, 19]: 0
- Plant response rating, Barley, Spring [3, 20]: 0
- Plant response rating, Barley, Spring [3, 21]: 0
- Plant response rating, Barley, Spring [3, 22]: 0
- Plant response rating, Barley, Spring [3, 23]: 0
- Plant response rating, Barley, Spring [3, 24]: 0
- Plant response rating, Barley, Winter [4, 18]: 0
- Plant response rating, Barley, Winter [4, 19]: 0
- Plant response rating, Barley, Winter [4, 20]: 0
- Plant response rating, Barley, Winter [4, 21]: 0
- Plant response rating, Barley, Winter [4, 22]: 0
- Plant response rating, Barley, Winter [4, 23]: 0
- Plant response rating, Barley, Winter [4, 24]: 0
- Plant response rating, Canarygrass [5, 18]: 0
- Plant response rating, Canarygrass [5, 19]: 0
- Plant response rating, Canarygrass [5, 20]: 0
- Plant response rating, Canarygrass [5, 25]: 40
- Plant response rating, Canarygrass [5, 21]: 0
- Plant response rating, Canarygrass [5, 22]: 0
- Plant response rating, Canarygrass [5, 23]: 10
- Plant response rating, Canarygrass [5, 24]: 35
- Plant response rating, Windgrass [6, 18]: 0
- Plant response rating, Windgrass [6, 19]: 0
- Plant response rating, Windgrass [6, 20]: 35
- Plant response rating, Windgrass [6, 25]: 60
- Plant response rating, Windgrass [6, 21]: 50
- Plant response rating, Windgrass [6, 22]: 75
- Plant response rating, Bluegrass [7, 18]: 0
- Plant response rating, Bluegrass [7, 19]: 0
- Plant response rating, Bluegrass [7, 20]: 15
- Plant response rating, Bluegrass [7, 25]: 15
- Plant response rating, Bluegrass [7, 21]: 0
- Plant response rating, Bluegrass [7, 22]: 35
- Plant response rating, Bluegrass [7, 23]: 40
- Plant response rating, Bluegrass [7, 24]: 40
- Plant response rating, Bromegrass, Downy [8, 18]: 0
- Plant response rating, Bromegrass, Downy [8, 19]: 0
- Plant response rating, Bromegrass, Downy [8, 20]: 0
- Plant response rating, Bromegrass, Downy [8, 25]: 20
- Plant response rating, Bromegrass, Downy [8, 21]: 20
- Plant response rating, Bromegrass, Downy [8, 22]: 20
- Plant response rating, Bromegrass, Downy [8, 23]: 20
- Plant response rating, Bromegrass, Downy [8, 24]: 35
- Plant response rating, Oat, Wild (wild oat (Avena fatua); [18]): 0
- Plant response rating, Oat, Wild (wild oat (Avena fatua); [19]): 15
- Plant response rating, Oat, Wild (wild oat (Avena fatua); [20]): 90
- Plant response rating, Oat, Wild (wild oat (Avena fatua); [25]): 95
- Plant response rating, Oat, Wild (wild oat (Avena fatua); [21]): 15
- Plant response rating, Oat, Wild (wild oat (Avena fatua); [22]): 15
- Plant response rating, Oat, Wild (wild oat (Avena fatua); [23]): 40
- Plant response rating, Oat, Wild (wild oat (Avena fatua); [24]): 40
- Plant response rating, Wheat, Spring [9, 18]: 0
- Plant response rating, Wheat, Spring [9, 19]: 0
- Plant response rating, Wheat, Spring [9, 20]: 0
- Plant response rating, Wheat, Spring [9, 21]: 0
- Plant response rating, Wheat, Spring [9, 22]: 0
- Plant response rating, Wheat, Spring [9, 23]: 0
- Plant response rating, Wheat, Spring [9, 24]: 0
- Plant response rating, Ryegrass, Italian [10, 18]: 0
- Plant response rating, Ryegrass, Italian [10, 19]: 60
- Plant response rating, Ryegrass, Italian [10, 20]: 80
- Plant response rating, Ryegrass, Italian [10, 25]: 95
- Plant response rating, Ryegrass, Italian [10, 21]: 25
- Plant response rating, Ryegrass, Italian [10, 22]: 30
- Plant response rating, Ryegrass, Italian [10, 23]: 60
- Plant response rating, Ryegrass, Italian [10, 24]: 75
- Plant response rating, Pigweed [11, 18]: 0
- Plant response rating, Pigweed [11, 19]: 0
- Plant response rating, Pigweed [11, 20]: 0
- Plant response rating, Pigweed [11, 25]: 20
- Plant response rating, Pigweed [11, 21]: 0
- Plant response rating, Pigweed [11, 22]: 0
- Plant response rating, Pigweed [11, 23]: 0
- Plant response rating, Pigweed [11, 24]: 0
- Plant response rating, Blackgrass [12, 18]: 5
- Plant response rating, Blackgrass [12, 19]: 35
- Plant response rating, Blackgrass [12, 20]: 90
- Plant response rating, Blackgrass [12, 25]: 98
- Plant response rating, Blackgrass [12, 21]: 0
- Plant response rating, Blackgrass [12, 22]: 50
- Plant response rating, Blackgrass [12, 23]: 75
- Plant response rating, Blackgrass [12, 24]: 75
- Plant response rating, Wheat, Winter [13, 18]: 0
- Plant response rating, Wheat, Winter [13, 19]: 0
- Plant response rating, Wheat, Winter [13, 20]: 0
- Plant response rating, Wheat, Winter [13, 21]: 0
- Plant response rating, Wheat, Winter [13, 22]: 0
- Plant response rating, Wheat, Winter [13, 23]: 0
- Plant response rating, Wheat, Winter [13, 24]: 0
- Plant response rating, Mustard, Wild [14, 18]: 0
- Plant response rating, Mustard, Wild [14, 19]: 0
- Plant response rating, Mustard, Wild [14, 20]: 0
- Plant response rating, Mustard, Wild [14, 25]: 0
- Plant response rating, Mustard, Wild [14, 21]: 0
- Plant response rating, Mustard, Wild [14, 22]: 0
- Plant response rating, Mustard, Wild [14, 23]: 0
- Plant response rating, Foxtail, Green [15, 18]: 70
- Plant response rating, Foxtail, Green [15, 19]: 80
- Plant response rating, Foxtail, Green [15, 20]: 95
- Plant response rating, Foxtail, Green [15, 25]: 98
- Plant response rating, Foxtail, Green [15, 21]: 15
- Plant response rating, Foxtail, Green [15, 22]: 25
- Plant response rating, Foxtail, Green [15, 23]: 100
- Plant response rating, Foxtail, Green [15, 24]: 100
